Laboratory results: the supplement of paper PMC10307832

Legend:
Assay in all cases: relative viability (nuclei count vs DMSO), 5 days (fraction); higher = more cells survive
[1] = compound: O=c1[nH]cc(F)c(=O)[nH]1 [5-Fluorouracil] + Cc1cc(Nc2cc(N3CCN(C)CC3)nc(Sc3ccc(NC(=O)C4CC4)cc3)n2)n[nH]1 [Tozasertib] (partner 0.1 µM)
Summary of the method: (§1)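 The day after seeding in 1536-well plates, lung cancer cell lines were treated by pin tool with a single drug, or with a fixed anchor-drug dose together with five library-drug doses (not always all listed) in √10 steps. After 5 days, a combined fix-and-stain solution (final 0.05% Triton X-100, 1% formaldehyde, 1 ug/ml Hoechst) was added. Nuclei counted on 4× images gave relative viability as treated counts over vehicle counts, reported as the median of duplicate plates.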

[2] = compound: O=c1[nH]cc(F)c(=O)[nH]1 [5-Fluorouracil] + Cc1nc(NC(=O)N2CCC[C@H]2C(N)=O)sc1-c1ccnc(C(C)(C)C(F)(F)F)c1 [Alpelisib] (partner 2 µM)
Summary of the method: as §1

[3] = compound: O=c1[nH]cc(F)c(=O)[nH]1 [5-Fluorouracil] + COc1cccc2cc(-c3nc([C@H]4CC[C@H](C(=O)O)CC4)n4ncnc(N)c34)[nH]c12 [OSI-027] (partner 0.5 µM)
Summary of the method: as §1

[4] = compound: O=c1[nH]cc(F)c(=O)[nH]1 [5-Fluorouracil] + C[C@@H](Oc1cc(-c2cnn(C3CCNCC3)c2)cnc1N)c1c(Cl)ccc(F)c1Cl [Crizotinib] (partner 1 µM)
Summary of the method: as §1

[5] = compound: O=c1[nH]cc(F)c(=O)[nH]1 [5-Fluorouracil] + COc1cc2c(Oc3ccc(NC(=O)C4(C(=O)Nc5ccc(F)cc5)CC4)cc3F)ccnc2cc1OCCCN1CCOCC1 [Foretinib] (partner 0.25 µM)
Summary of the method: as §1

Cell Line | relative viability ([1]; first compound 0.02 µM) | relative viability ([1]; first compound 0.2 µM) | relative viability ([1]; first compound 0.6325 µM) | relative viability ([1]; first compound 2 µM) | relative viability ([2]; first compound 0.02 µM) | relative viability ([2]; first compound 0.2 µM) | relative viability ([2]; first compound 0.6325 µM) | relative viability ([2]; first compound 2 µM) | relative viability ([3]; first compound 0.02 µM) | relative viability ([3]; first compound 0.2 µM) | relative viability ([3]; first compound 0.6325 µM) | relative viability ([3]; first compound 2 µM) | relative viability ([4]; first compound 0.02 µM) | relative viability ([4]; first compound 0.2 µM) | relative viability ([4]; first compound 0.6325 µM) | relative viability ([4]; first compound 2 µM) | relative viability ([5]; first compound 0.02 µM) | relative viability ([5]; first compound 0.2 µM) | relative viability ([5]; first compound 0.6325 µM) | relative viability ([5]; first compound 2 µM)
HOP-62 | 0.368 | 0.364 | 0.389 | 0.319 | 0.835 | 1.03 | 0.844 | 0.754 | 0.87 | 0.938 | 0.846 | 0.633 | 0.938 | 0.733 | 0.9 | 0.781 | 1.14 | 1.12 | 1.22 | 0.95
LC-2-ad | 0.443 | 0.382 | 0.365 | 0.293 | 0.878 | 0.884 | 0.514 | 0.339 | 0.91 | 0.582 | 0.404 | 0.322 | 0.431 | 0.417 | 0.289 | 0.216 | 0.979 | 0.663 | 0.414 | 0.339
LCLC-97TM1 | 0.223 | 0.271 | 0.181 | 0.199 | 0.205 | 0.224 | 0.208 | 0.161 | 0.392 | 0.531 | 0.557 | 0.379 | 0.349 | 0.552 | 0.244 | 0.171 | 0.941 | 0.989 | 0.941 | 0.671
LCLC-103H | 0.536 | 0.511 | 0.305 | 0.212 | 0.984 | 0.983 | 0.699 | 0.403 | 0.503 | 0.59 | 0.379 | 0.311 | 1.1 | 1.11 | 0.883 | 0.566 | 0.845 | 0.717 | 0.454 | 0.267
LK-2 | 0.169 | 0.176 | 0.16 | 0.189 | 1.3 | 0.606 | 0.803 | 0.578 | 0.196 | 0.188 | 0.199 | 0.165 | 0.246 |  | 0.21 | 0.221 | 1.6 | 1.02 | 1.13 | 0.568
LOU-NH91 | 0.701 | 0.705 | 0.564 | 0.243 | 0.679 | 0.706 | 0.57 | 0.466 | 0.694 | 0.788 | 0.692 | 0.432 | 0.798 | 0.697 | 0.547 | 0.341 | 0.966 | 0.995 | 0.731 | 0.315
LU99A | 0.325 | 0.243 | 0.269 | 0.207 | 0.495 | 0.566 | 0.47 | 0.353 | 0.262 | 0.272 | 0.311 | 0.223 | 0.579 | 0.521 | 0.521 | 0.384 | 0.752 | 0.851 | 0.693 | 0.488
LXF-289 | 0.189 | 0.164 | 0.134 | 0.138 | 1.03 | 0.595 | 0.353 | 0.286 | 0.808 | 0.612 | 0.356 | 0.258 | 0.793 | 0.574 | 0.338 | 0.277 | 0.917 | 0.757 | 0.468 | 0.313
